Experimental data: the NIST ThermoML archive (doi:10.1016/j.jct.2009.05.011)
± gives the expanded uncertainty stated by the source.

Assay: mn = molality of the nth substance listed, in mol/kg
Settings: 101 kPa, Liquid, Vibrating tube method

CC[C@H](C)[C@H](NC(=O)CN)C(=O)NCC(=O)O [glycyl-L-isoleucylglycine] + O
Settings	mass density [kg/m3]
288.15 K, m1 = 0.0284	1001.07 ± 0.086
288.15 K, m1 = 0.03948	1001.83 ± 0.086
288.15 K, m1 = 0.04918	1002.5 ± 0.087
288.15 K, m1 = 0.05715	1003.04 ± 0.086
288.15 K, m1 = 0.06935	1003.87 ± 0.086
288.15 K, m1 = 0.07955	1004.56 ± 0.086
288.15 K, m1 = 0.08916	1005.21 ± 0.086
288.15 K, m1 = 0.1012	1006.02 ± 0.087
303.15 K, m1 = 0.01893	996.925 ± 0.086
303.15 K, m1 = 0.0328	997.846 ± 0.09
303.15 K, m1 = 0.04344	998.561 ± 0.092
303.15 K, m1 = 0.04827	998.872 ± 0.085
303.15 K, m1 = 0.05907	999.58 ± 0.084
303.15 K, m1 = 0.06849	1000.21 ± 0.097
303.15 K, m1 = 0.07945	1000.91 ± 0.086
303.15 K, m1 = 0.09989	1002.23 ± 0.083
313.15 K, m1 = 0.02969	994.182 ± 0.086
313.15 K, m1 = 0.04028	994.873 ± 0.085
313.15 K, m1 = 0.05061	995.543 ± 0.085
313.15 K, m1 = 0.05971	996.132 ± 0.084
313.15 K, m1 = 0.07966	997.418 ± 0.084

CC(C)C[C@H](NC(=O)CN)C(=O)NCC(=O)O [glycyl-L-leucylglycine] + O
Settings	mass density [kg/m3]
288.15 K, m1 = 0.03052	1001.2 ± 0.085
288.15 K, m1 = 0.04107	1001.91 ± 0.086
288.15 K, m1 = 0.05063	1002.57 ± 0.085
288.15 K, m1 = 0.06015	1003.2 ± 0.086
288.15 K, m1 = 0.07034	1003.9 ± 0.086
288.15 K, m1 = 0.08092	1004.6 ± 0.085
288.15 K, m1 = 0.09106	1005.27 ± 0.085
288.15 K, m1 = 0.1008	1005.92 ± 0.086
298.15 K, m1 = 0.01963	998.372 ± 0.085
298.15 K, m1 = 0.03198	999.201 ± 0.083
298.15 K, m1 = 0.04637	1000.16 ± 0.082
298.15 K, m1 = 0.0606	1001.11 ± 0.085
298.15 K, m1 = 0.07265	1001.9 ± 0.087
298.15 K, m1 = 0.08576	1002.77 ± 0.084
298.15 K, m1 = 0.09698	1003.5 ± 0.073
303.15 K, m1 = 0.01876	996.907 ± 0.09
303.15 K, m1 = 0.03847	998.204 ± 0.084
303.15 K, m1 = 0.04881	998.896 ± 0.085
303.15 K, m1 = 0.05715	999.436 ± 0.083
303.15 K, m1 = 0.06905	1000.22 ± 0.081
303.15 K, m1 = 0.07699	1000.73 ± 0.087
303.15 K, m1 = 0.08729	1001.4 ± 0.085
303.15 K, m1 = 0.09709	1002.03 ± 0.073
313.15 K, m1 = 0.01926	993.479 ± 0.086
313.15 K, m1 = 0.02873	994.105 ± 0.085
313.15 K, m1 = 0.04912	995.406 ± 0.085
313.15 K, m1 = 0.06755	996.608 ± 0.084
313.15 K, m1 = 0.07763	997.232 ± 0.083
313.15 K, m1 = 0.0869	997.826 ± 0.083
313.15 K, m1 = 0.1005	998.668 ± 0.082

CSCC[C@H](NC(=O)CN)C(=O)NCC(=O)O [glycyl-L-methionylglycine] + O
Settings	mass density [kg/m3]
288.15 K, m1 = 0.02065	1000.96 ± 0.1
288.15 K, m1 = 0.02481	1001.33 ± 0.1
288.15 K, m1 = 0.03005	1001.79 ± 0.1
288.15 K, m1 = 0.04038	1002.71 ± 0.1
288.15 K, m1 = 0.05024	1003.58 ± 0.1
288.15 K, m1 = 0.06017	1004.46 ± 0.1
288.15 K, m1 = 0.07183	1005.48 ± 0.1
288.15 K, m1 = 0.07978	1006.18 ± 0.1
288.15 K, m1 = 0.0913	1007.18 ± 0.11
303.15 K, m1 = 0.03024	998.275 ± 0.14
303.15 K, m1 = 0.03988	999.096 ± 0.11
303.15 K, m1 = 0.05998	1000.82 ± 0.096
303.15 K, m1 = 0.06988	1001.65 ± 0.097
303.15 K, m1 = 0.07911	1002.43 ± 0.099
303.15 K, m1 = 0.08988	1003.32 ± 0.11
303.15 K, m1 = 0.1012	1004.27 ± 0.1
313.15 K, m1 = 0.0199	993.923 ± 0.1
313.15 K, m1 = 0.03002	994.787 ± 0.1
313.15 K, m1 = 0.04003	995.629 ± 0.1
313.15 K, m1 = 0.05041	996.504 ± 0.1
313.15 K, m1 = 0.061	997.393 ± 0.1
313.15 K, m1 = 0.07039	998.173 ± 0.1
313.15 K, m1 = 0.08051	999.015 ± 0.1

NCC(=O)N[C@@H](Cc1ccccc1)C(=O)NCC(=O)O [glycyl-L-phenylalanylglycine] + O
Settings	mass density [kg/m3]
288.15 K, m1 = 0.005986	999.628 ± 0.1
288.15 K, m1 = 0.008946	999.888 ± 0.1
288.15 K, m1 = 0.01159	1000.12 ± 0.1
288.15 K, m1 = 0.01398	1000.33 ± 0.1
288.15 K, m1 = 0.01783	1000.66 ± 0.1
288.15 K, m1 = 0.02035	1000.89 ± 0.1
288.15 K, m1 = 0.02318	1001.13 ± 0.1
288.15 K, m1 = 0.0251	1001.3 ± 0.1
303.15 K, m1 = 0.00896	996.415 ± 0.27
303.15 K, m1 = 0.01148	996.632 ± 0.088
303.15 K, m1 = 0.01353	996.804 ± 0.084
303.15 K, m1 = 0.01556	996.971 ± 0.15
303.15 K, m1 = 0.01814	997.19 ± 0.11
303.15 K, m1 = 0.01958	997.317 ± 0.082
303.15 K, m1 = 0.02246	997.559 ± 0.056
303.15 K, m1 = 0.02447	997.735 ± 0.15
313.15 K, m1 = 0.004093	992.563 ± 0.1
313.15 K, m1 = 0.00896	992.969 ± 0.1
313.15 K, m1 = 0.01149	993.182 ± 0.1
313.15 K, m1 = 0.01353	993.351 ± 0.099
313.15 K, m1 = 0.01556	993.516 ± 0.099
313.15 K, m1 = 0.01761	993.683 ± 0.1
313.15 K, m1 = 0.02033	993.916 ± 0.1
313.15 K, m1 = 0.02333	994.159 ± 0.1
313.15 K, m1 = 0.02522	994.324 ± 0.1

NCC(=O)N1CCC[C@H]1C(=O)NCC(=O)O [glycyl-L-prolylglycine] + O
Settings	mass density [kg/m3]
288.15 K, m1 = 0.02017	1000.83 ± 0.1
288.15 K, m1 = 0.0252	1001.26 ± 0.1
288.15 K, m1 = 0.02989	1001.66 ± 0.1
288.15 K, m1 = 0.0347	1002.07 ± 0.1
288.15 K, m1 = 0.04017	1002.54 ± 0.1
288.15 K, m1 = 0.04486	1002.93 ± 0.1
288.15 K, m1 = 0.04775	1003.19 ± 0.1
288.15 K, m1 = 0.05375	1003.69 ± 0.1
303.15 K, m1 = 0.02292	997.573 ± 0.099
303.15 K, m1 = 0.02697	997.912 ± 0.11
303.15 K, m1 = 0.03212	998.333 ± 0.11
303.15 K, m1 = 0.03677	998.728 ± 0.11
303.15 K, m1 = 0.04242	999.195 ± 0.1
303.15 K, m1 = 0.04731	999.598 ± 0.096
303.15 K, m1 = 0.05219	1000.01 ± 0.053
313.15 K, m1 = 0.02757	994.502 ± 0.098
313.15 K, m1 = 0.03212	994.873 ± 0.099
313.15 K, m1 = 0.03715	995.286 ± 0.099
313.15 K, m1 = 0.04242	995.724 ± 0.098
313.15 K, m1 = 0.04731	996.116 ± 0.098
313.15 K, m1 = 0.05169	996.482 ± 0.1

CC(C)[C@H](NC(=O)CN)C(=O)NCC(=O)O [glycyl-L-valylglycine] + O
Settings	mass density [kg/m3]
288.15 K, m1 = 0.01862	1000.45 ± 0.089
288.15 K, m1 = 0.02808	1001.13 ± 0.089
288.15 K, m1 = 0.03769	1001.83 ± 0.089
288.15 K, m1 = 0.04662	1002.47 ± 0.089
288.15 K, m1 = 0.05168	1002.82 ± 0.088
288.15 K, m1 = 0.05581	1003.11 ± 0.089
288.15 K, m1 = 0.06152	1003.53 ± 0.089
288.15 K, m1 = 0.07369	1004.39 ± 0.089
288.15 K, m1 = 0.08031	1004.86 ± 0.089
303.15 K, m1 = 0.02786	997.6 ± 0.13
303.15 K, m1 = 0.0373	998.253 ± 0.086
303.15 K, m1 = 0.04619	998.869 ± 0.1
303.15 K, m1 = 0.05567	999.521 ± 0.086
303.15 K, m1 = 0.06481	1000.14 ± 0.091
303.15 K, m1 = 0.07464	1000.82 ± 0.087
303.15 K, m1 = 0.08365	1001.43 ± 0.093
303.15 K, m1 = 0.09397	1002.14 ± 0.087
313.15 K, m1 = 0.02103	993.668 ± 0.088
313.15 K, m1 = 0.02584	993.998 ± 0.088
313.15 K, m1 = 0.03709	994.764 ± 0.087
313.15 K, m1 = 0.05558	996.017 ± 0.087
313.15 K, m1 = 0.06483	996.652 ± 0.087
313.15 K, m1 = 0.0741	997.273 ± 0.087
313.15 K, m1 = 0.08323	997.9 ± 0.086
313.15 K, m1 = 0.09182	998.467 ± 0.085
